Experimental data as given in patent US6949542B2, “Dihydro-benzo[b][1,4]diazepin-2-one derivatives” (Hoffman-La Roche Inc., priority 2002, dated 2005).

SMILES	melting point
O=C1CC(c2cccc(-c3cccnn3)c2)=Nc2ccc(C(F)(F)F)cc2N1 [Example 205, 4-(3-Pyridazin-3-yl-phenyl)-8-trifluoromethyl-1,3-dihydro-benzo[b][1,4]diazepin-2-one]	238 to 240 °C
Cc1cncc(-c2cccc(C3=Nc4cc(C(F)(F)F)c(C)cc4NC(=O)C3)c2)n1 [Example 130, 8-Methyl-4-[3-(6-methyl-pyrazin-2-yl)-phenyl]-7-trifluoromethyl-1,3-dihydro-benzo[b][1,4]diazepin-2-one]	211 °C
Cc1nccc(-c2cccc(C3=Nc4cc(OCC(F)(F)F)c(C(F)(F)F)cc4NC(=O)C3)c2)c1C [Example 145, 4-[3-(2,3-Dimethyl-pyridin-4-yl)-phenyl]-7-(2,2,2-trifluoro-ethoxy)-8-trifluoromethyl-1,3-dihydro-benzo[b][1,4]diazepin-2-one]	222 °C
Cc1cc(-c2cccc(C3=Nc4cc(C)c(C(F)(F)F)cc4NC(=O)C3)c2)ncn1 [Example 308, 7-Methyl-4-[3-(6-methyl-pyrimidin-4-yl)-phenyl]-8-trifluoromethyl-1,3-dihydro-benzo[b][1,4]diazepin-2-one]	227 to 230 °C
Cc1cc(-c2cccc(C3=Nc4cc(C)c(C(F)(F)F)cc4NC(=O)C3)c2)nc(N)n1 [Example 315, 4-[3-(2-Amino-6-methyl-pyrimidin-4-yl)-phenyl]-7-methyl-8-trifluoromethyl-1,3-dihydro-benzo[b][1,4]diazepin-2-one]	248 to 250 °C
O=C1CC(c2cccc(-c3ccccn3)c2)=Nc2cc(F)c(Cl)cc2N1 [Example 52, 8-Chloro-7-fluoro-4-(3-pyridin-2-yl-phenyl)-1,3-dihydro-benzo[b][1,4]diazepin-2-one]	197 to 198 °C
Cc1nccc(-c2cccc(C3=Nc4ccc(C(F)(F)F)cc4NC(=O)C3)c2)c1C [Example 142, 4-[3-(2,3-Dimethyl-pyridin-4-yl)-phenyl]-8-trifluoromethyl-1,3-dihydro benzo[b][1,4]diazepin-2-one]	200 °C
O=C1CC(c2cccc(-c3cccnc3)c2)=Nc2ccc(C#Cc3ccc(F)cc3)cc2N1 [Example 174, 8-(4-Fluoro-phenylethynyl)-4-(3-pyridin-3-yl-phenyl)-1,3-dihydro-benzo[b][1,4]diazepin-2-one]	228 to 230 °C
CCOc1ccc2c(c1)N=C(c1cccc(-c3ccc(C)nc3)c1)CC(=O)N2 [Example 60, 7-Ethoxy-4-[3-(6-methyl-pyridin-3-yl)-phenyl]-1,3-dihydro-benzo[b][1,4]diazepin-2-one]	173 °C
CCCN(C)c1cc2c(cc1C(F)(F)F)NC(=O)CC(c1cccc(-c3cncnc3)c1)=N2 [Example 99, 7-(Methyl-propyl-amino)-4-(3-pyrimidin-5-yl-phenyl)-8-trifluoromethyl-1,3-dihydro-benzo[b][1,4]diazepin-2-one]	197 °C
Cc1cc(-c2cccc(C3=Nc4cc(C)c(Cl)cc4NC(=O)C3)c2)nc(NCCO)n1 [Example 323, 8-Chloro-4-{3-[2-(2-hydroxy-ethylamino)-6-methyl-pyrimidin-4-yl]-phenyl}-7-methyl-1,3-dihydro-benzo[b][1,4]diazepin-2-one]	197 to 199 °C
Cc1cc(-c2cccc(C3=Nc4cc(OCC(F)(F)F)c(C(F)(F)F)cc4NC(=O)C3)c2)cc(CO)n1 [Example 405, 4-[3-(2-Hydroxymethyl-6-methyl-pyridin-4-yl)-phenyl]-7-(2,2,2-trifluoro-ethoxy)-8-trifluoromethyl-1,3-dihydro-benzo[b][1,4]diazepin-2-one]	227 °C

Next, values leading:

melting point	SMILES
225 °C (dec.)	COc1cc2c(cc1C(F)(F)F)NC(=O)CC(c1cccc(-c3ccncc3)c1)=N2 [Example 35, 7-Methoxy-4-(3-pyridin-4-yl-phenyl)-8-trifluoromethyl-1,3-dihydro-benzo[b][1,4]diazepin-2-one]
97 °C	CCCN(C)c1cc2c(cc1C(F)(F)F)NC(=O)CC(c1cccc(-c3ccnc(CO)c3)c1)=N2 [Example 369, 4-[3-(2-Hydroxymethyl-pyridin-4-yl)-phenyl]-7-(methyl-propyl-amino)-8-trifluoromethyl-1,3-dihydro-benzo[b][1,4]diazepin-2-one]
193 to 196 °C	COc1ccc2c(c1)NC(=O)CC(c1cccc(-c3ccncc3)c1)=N2 [Example 38, 8-Methoxy-4-(3-pyridin-4-yl-phenyl)-1,3-dihydro-benzo[b][1,4]diazepin-2-one]
218 °C	Cc1cc(-c2cccc(C3=Nc4cc(CO)c(C(F)(F)F)cc4NC(=O)C3)c2)ccn1 [Example 261, 7-Hydroxymethyl-4-[3-(2-methyl-pyridin-4-yl)-phenyl]-8-trifluoromethyl-1,3-dihydro-benzo[b][1,4]diazepin-2-one]
218 °C	O=C1CC(c2cccc(-c3ccnc(C4CC4)c3)c2)=Nc2cc(OCC(F)(F)F)c(C(F)(F)F)cc2N1 [Example 349, 4-[3-(2-Cyclopropyl-pyridin-4-yl)-phenyl]-7-(2,2,2-trifluoro-ethoxy)-8-trifluoromethyl-1,3-dihydro-benzo[b][1,4]diazepin-2-one]
223 °C	Cc1cc(-c2cccc(C3=Nc4cc(N5CCCC5)c(C(F)(F)F)cc4NC(=O)C3)c2)ccn1 [Example 365, 4-[3-(2-Methyl-pyridin-4-yl)-phenyl]-7-pyrrolidin-1-yl-8-trifluoromethyl-1,3-dihydro-benzo[b][1,4]diazepin-2-one]
207 °C	O=C1CC(c2cccc(-c3cccnc3)c2)=Nc2ccc(OC(F)(F)F)cc2N1 [Example 185, 4-(3-Pyridin-3-yl-phenyl)-8-trifluoromethoxy-1,3-dihydro-benzo[b][1,4]diazepin-2-one]
196 to 198 °C	CN(c1cc2c(cc1C(F)(F)F)NC(=O)CC(c1cccc(-c3cccnc3)c1)=N2)C1CC1 [Example 62, 7-(Cyclopropyl-methyl-amino)-4-(3-pyridin-3-yl-phenyl)-8-trifluoromethyl-1,3-dihydro-benzo[b][1,4]diazepin-2-one]
200 to 201 °C	C=Cc1cc2c(cc1C(F)(F)F)NC(=O)CC(c1cccc(-c3ccnc(C)c3)c1)=N2 [Example 244, 4-[3-(2-Methyl-pyridin-4-yl)-phenyl]-8-trifluoromethyl-7-vinyl-1,3-dihydro-benzo[b][1,4]diazepin-2-one]
217 °C	Cc1cc2c(cc1C(F)(F)F)N=C(c1cccc(-c3ccncc3)c1)CC(=O)N2 [Example 64, 8-Methyl-4-(3-pyridin-4-yl-phenyl)-7-trifluoromethyl-1,3-dihydro-benzo[b][1,4]diazepin-2-one]
213 to 214 °C	O=C1CC(c2cccc(-c3ccc(C4CC4)nc3)c2)=Nc2cc(OCC(F)(F)F)c(C(F)(F)F)cc2N1 [Example 166, 4-[3-(6-Cyclopropyl-pyridin-3-yl)-phenyl]-7-(2,2,2-trifluoro-ethoxy)-8-trifluoromethyl-1,3-dihydro-benzo[b][1,4]diazepin-2-one]
231 to 233 °C	Cc1cc2c(cc1C(F)(F)F)NC(=O)CC(c1cccc(-c3ccc(N(C)C)nc3)c1)=N2 [Example 217, 4-[3-(6-Dimethylamino-pyridin-3-yl)-phenyl]-7-methyl-8-trifluoromethyl-1,3-dihydro-benzo[b][1,4]diazepin-2-one]
